In patent US10457649B2, “Polymorphs of a mPGES-1 inhibiting triazolone compound” (Glenmark Pharmaceuticals S.A., priority 2015, dated 2019) one finds Related substances and Single max. impurity data, which are given here for one molecule.

The nature of this data set: Stability studies of compound of formula II on storage; degradation products estimated by HPLC. Type of data set: physicochemical. The text has this:
Apparatus: A High Performance Liquid Chromatograph equipped with quaternary gradient pumps, variable wavelength UV detector attached with data recorder and Integrator software or equivalent.
Column: Zorbax Eclipse XDB C-8, 150 mm×4.6 mm, 5μ or equivalent
Mobile phase: A: Buffer B: Methanol (Gradient Program)
Buffer: Water, pH adjusted to 2.2 with trifluoroacetic acid solution. Filter through 0.45μ filter paper and degas.
Diluent: Water: Methanol (20:80 v/v)
Detection wavelength: UV 270 nm
Column temperature: 25° C.
25 mg of the compound was weighed and transferred into a 50 mL volumetric flask. Methanol (5 ml) was added and it was sonicated to dissolve. The diluent was added to make up the solution to the mark of the flask.
The equal volumes of blank (diluent) and test solution were separately injected into the High Performance liquid chromatography. The responses were recorded eliminating the peaks due to blank and the chromatographic purity by area was calculated by normalization method.
The compound of formula II was stored under conditions as shown in below table and a total amount of degradation products (related substances) as well as single maximum impurity formed during storage was estimated by HPLC. The material was packed in inner clear polythene bag under nitrogen lined with black polythene bag, covered with triple laminated aluminium bag placed in HDPE drum and subjected to the conditions mentioned in the table 5.
The result of stability studies of compound of formula (II) carried out under the conditions mentioned in the table 5 is presented in tables 6 and 7.

Setting [1] is: storage condition 1: 25 ± 2° C., 60 ± 5% RH, storage period 0 months.
Setting [2] is: storage condition 1: 25 ± 2° C., 60 ± 5% RH, storage period 3 months.
[3] abbreviates: storage condition 1: 25 ± 2° C., 60 ± 5% RH, storage period 6 months.
Setting [4] is: storage condition 2: 40 ± 2° C., 75 ± 5% RH, storage period 0 months.
Setting [5] is: storage condition 2: 40 ± 2° C., 75 ± 5% RH, storage period 1 month.
Setting [6] is: storage condition 2: 40 ± 2° C., 75 ± 5% RH, storage period 2 months.
Setting [7] is: storage condition 2: 40 ± 2° C., 75 ± 5% RH, storage period 3 months.
Setting [8] is: storage condition 2: 40 ± 2° C., 75 ± 5% RH, storage period 6 months.

SMILES strings stand for the structures.

In the case of `CC(C)(C)C(=O)NCc1ccc(Cl)c(-c2nn(-c3ccc(C(F)(F)F)cc3)c(=O)[nH]2)c1` [compound of formula II, N-(4-chloro-3-(5-oxo-1-(4-(trifluoromethyl)phenyl)-4,5-dihydro-1H-1,2,4-triazol-3-yl)benzyl)pivalamide], the Related substances under setting [1] is recorded as 0.13%; the Related substances under setting [2] was 0.14%; the Related substances under setting [3] was 0.14%; the Related substances under setting [4] is 0.13%; the Related substances under setting [5] is 0.14%; the Related substances under setting [6] is recorded as 0.13%. Further, the Related substances runs as follows: under setting [7], 0.14%; under setting [8], 0.13%. Also, the Single max. impurity under setting [1] is 0.13%; the Single max. impurity under setting [2] was 0.14%; the Single max. impurity under setting [3] is 0.14%; the Single max. impurity under setting [4] is 0.13%; the Single max. impurity under setting [5] is reported as 0.14%; the Single max. impurity under setting [6] is recorded as 0.13%. Besides, the Single max. impurity under setting [7] is given as 0.14% and the Single max. impurity under setting [8] is recorded as 0.13%.
